We go through 28 compounds from patent publication US12636385B2, “Selective ligands for tau aggregates” (Sentonix, Inc., priority 2018, dated 2026).

The target of data set [1] is T1, 0N4R Tau fibrils (Homo sapiens, UniProt P10636).
T1 construct: made in house
Briefly: ^3H-THK5117 competition binding to tau fibrils in vitro. The conditions noted are these: for Selectivity for tau relative to Aβ: calculated from [^3H]-THK5117 tau and [^3H]-AZD2184 Aβ assays. The protocol: Preparation of recombinant 0N4R Tau fibrils was performed as previously described in Morozova, O. A., Biochemistry (2013), Vol., 52(40), pages 6960-6967. Competition binding experiments to 0N4R Tau fibrils were performed by incubating increasing concentrations [10^−10-10^−6 M] of the Example compounds of the invention, or the known tau specific ligand PBB3 (PBB3 was synthesized as previously described in M. Maruyama, et al, Neuron 2013, 79, 1094-1108) or MK6240 (Novandi Chemistry AB), in the presence of 3 nM of the known tau ligand [^3H]-THK5117 (Novandi Chemistry) and 0.2 mM 0N4R tau fibrils in binding buffer (50 mM Tris-HCl, pH 7.4, 0.1% BSA) for 1 h in the dark, and at 22° C. The incubation was terminated by filtration through a Whatman GF/B glass filter (Whatman International, Kent, UK) using a Brandel cell harvester. The filter was then washed rapidly four times with 3 mL of ice-cold wash buffer (5 mM Tris-HCl, 0.25 mM NaCl, 5% EtOH), and equilibrated for 1 h in scintillation vials containing 5 mL of Ultima Gold scintillation fluid before being analysed using a Liquid Scintillation Analyzer.
The results are shown in Table 2 in the column labeled “Tau IC50”.
Relative selectivity for tau compared to Aβ for the exemplified compounds was calculated using the results for the [^3H]-THK5117 tau and [^3H]-AZD2184 Aβ assays described above. The calculated results are shown in Table 2 in the column labeled “Selectivity for tau relative to Aβ”.

Data set [2] deals with T2, Aβ(1-42) amyloid fibrils (Homo sapiens, UniProt P05067).
T2 construct: Aβ(1-42) amyloid fibrils
T2 sequence (P05067 672-713): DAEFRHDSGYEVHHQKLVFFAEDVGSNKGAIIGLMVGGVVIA
Briefly: ^3H-AZD2184 competition binding to Aβ(1-42) fibrils in vitro. The conditions noted are these: [^3H]-AZD2184, Aβ(1-42) amyloid fibrils; average if run more than once. Here is the method:
Competition binding experiments to Aβ(1-42) amyloid fibrils were performed as previously described in Jureus, A., et al, Journal of Neurochemistry (2010), Vol. 114, pages 784-794 for the Example compounds of the invention indicated in Table 2, or the known tau specific ligand PBB3 (PBB3 was synthesized as previously described in M. Maruyama, et al, Neuron 2013, 79, 1094-1108).
The results are shown in Table 2 in the column labeled “Aβ IC50”.

Data set [3] in a line: Rat brain cassette exposure study. It is filed as in vivo, Sprague Dawley rat. The settings on record: intravenous cassette dosing. Here is the method:
The in vivo pharmacokinetic characteristics of the example compounds of the invention were compared directly with the known beta-amyloid specific ligand AZD2184 (Johnson, A. E., et al, Journal of Neurochemistry (2009), Vol. 108, pages 1177-1186). Rat brain exposure to three compounds of the invention and AZD2184 was measured by intravenous cassette dosing three test compound: Example Compound 43, Example Compound 47 and Example Compound 48; and AZD2184 (Novandi Chemistry) (concentration of 0.25 μmol/mL each) using the procedure previously described in Johnson, A. E., et al, Journal of Neurochemistry (2009), Vol. 108, pages 1177-1186. 6 male Sprague Dawley rat were used in the experiments, three rats per time point (2 min and 30 min).

Data set [4] has as its target T1, 0N4R Tau fibrils. Kind of data set: In vitro competitive binding to 0N4R tau fibrils in the presence of [^3H]-Example Compound 68 (FIG. 1).
Where [5] appears, read: 3 nM [^3H]-THK5117, recombinant 0N4R tau fibrils, average if run more than once.

Structures are written as SMILES.

T1 sequence (P10636 1-383 isoform P10636-6): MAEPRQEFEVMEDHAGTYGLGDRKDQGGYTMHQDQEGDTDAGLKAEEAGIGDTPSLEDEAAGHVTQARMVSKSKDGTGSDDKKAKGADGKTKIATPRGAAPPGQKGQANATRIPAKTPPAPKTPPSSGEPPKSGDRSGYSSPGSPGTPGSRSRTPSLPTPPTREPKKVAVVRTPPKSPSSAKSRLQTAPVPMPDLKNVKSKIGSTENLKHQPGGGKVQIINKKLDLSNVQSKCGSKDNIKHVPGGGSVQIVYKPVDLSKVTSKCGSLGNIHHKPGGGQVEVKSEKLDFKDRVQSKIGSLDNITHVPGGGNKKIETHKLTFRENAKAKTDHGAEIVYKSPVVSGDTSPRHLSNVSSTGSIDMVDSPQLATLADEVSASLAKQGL

Turning to `OCCC1CCN(c2ccc(-c3nc4ccc(O)cc4s3)cn2)CC1` [Compound 36], the IC50 (usually the point on the concentration scale where inhibition reaches its midpoint) in data set [1] (setting [5]) is 3 nM; in data set [2], 91 nM. In addition, the “Selectivity for tau relative to Aβ” value in data set [1] is 30.
Taken in the same sequence, the figures for `OCCC1CCN(c2ncc(-c3nc4ccc(O)cc4s3)cn2)CC1` [Compound 38] were 6 nM, 250 nM and 42.
With `Oc1ccc2nc(-c3cnc(N4CCC(CCF)CC4)nc3)sc2c1` [Compound 39], the figures for the IC50 in data set [1] (setting [5]) and in data set [2] were 1.5 nM and 50 nM, respectively. Also, the “Selectivity for tau relative to Aβ” value in data set [1] is listed as 33.
Consider `N#Cc1ccc2nc(-c3cnc(N4CCC(CCO)CC4)nc3)sc2c1` [Compound 40], for which the IC50 was found to be 6 nM in data set [1] (setting [5]) and 70 nM in data set [2]. In addition, in data set [1], the “Selectivity for tau relative to Aβ” value is 12.
Take `NC(=O)c1ccc2nc(-c3cnc(N4CCC(CCF)CC4)nc3)sc2c1` [Compound 43]: the IC50 worked out at 4 nM in data set [1] (setting [5]) and 72 nM in data set [2]. Moreover, the “Selectivity for tau relative to Aβ” value in data set [1] is 18.
On the same counts, the results for `OCC1CCN(c2ccc(-c3cc4ccccc4o3)c(F)n2)CC1` [Compound 45] are 9 nM, 42 nM and 4.7.
Taken in the same sequence, the figures for `OCCC1CCN(c2ccc(-c3cc4ccccc4o3)c(F)n2)CC1` [Compound 46] were 6 nM, 53 nM and 8.8.
Consider `COc1ccc2[nH]c(-c3ccc(N4CCC(CO)CC4)nc3F)cc2c1` [Compound 47], for which the IC50 turned out to be 2 nM in data set [1] (setting [5]) and 33 nM in data set [2]. In data set [1], the “Selectivity for tau relative to Aβ” value is given as 17.
As to `OCC1CCN(c2ccc(-c3cc4cc(O)ccc4[nH]3)c(F)n2)CC1` [Compound 48], the concentration for half-maximal inhibition (IC50) came to 5 nM in data set [1] (setting [5]) and 187 nM in data set [2]. Also, in data set [1], the “Selectivity for tau relative to Aβ” value is 37.
On the same counts, the results for `FCCC1CCN(c2ncc(-c3cn4ccccc4n3)cn2)CC1` [Compound 52] are 49 nM, 84 nM and 1.7.
Taken in the same sequence, the figures for `COc1ccc2nc(-c3cnc(N4CCC(CCF)CC4)nc3)cn2c1` [Compound 53] were 14 nM, 37 nM and 2.6.
On the same counts, the results for `OCC1CCN(c2ccc(-c3nc4ccc(OCCF)cc4s3)cn2)CC1` [Compound 56] are 2 nM, 3 nM and 1.5.
For the compound `OCC1CCN(c2ncc(-c3nc4ccc(O)cc4s3)cn2)CC1` [Compound 57], the IC50 in data set [1] (setting [5]) was determined as 12 nM; in data set [2], 302 nM. The “Selectivity for tau relative to Aβ” value in data set [1] is 25.
On the same counts, the results for `OCC1CCN(c2ncc(-c3nc4ccc(OCCF)cc4s3)cn2)CC1` [Compound 58] are 6 nM, 37 nM and 6.2.
As for `O=C(NCCO)c1ccc2nc(-c3cnc(N4CCC(CCF)CC4)nc3)sc2c1` [Compound 60], the half-maximal inhibitory concentration (IC50) amounted to 11 nM in data set [1] (setting [5]) and 28 nM in data set [2]. Further, the “Selectivity for tau relative to Aβ” value in data set [1] is 2.5.
On the same counts, the results for `OCC1CCN(c2ccc(-c3nc4ccc(OCCF)cc4o3)cn2)CC1` [Compound 62, (1-{5-[6-(2-Fluoroethoxy)-1,3-benzoxazol-2-yl]pyridin-2-yl}piperidin-4-yl)methanol] are 22 nM, 9 nM and 0.4.
As to `CCOC(=O)C1CCN(c2ccc(-c3cc4cc(O)ccc4[nH]3)c(F)n2)CC1` [Compound 65], the IC50 in data set [1] (setting [5]) was 2 nM; in data set [2], 44 nM. Moreover, the “Selectivity for tau relative to Aβ” value in data set [1] was 22.
Taken in the same sequence, the figures for `NC(=O)C1CCN(c2ccc(-c3cc4cc(O)ccc4[nH]3)c(F)n2)CC1` [Compound 66] were 21 nM, 272 nM and 13.
Taken in the same sequence, the figures for `COC(=O)C1CCN(c2ccc(-c3cc4cc(O)ccc4[nH]3)c(F)n2)CC1` [Compound 67] were 4 nM, 32 nM and 8.
As to `COc1ccc2[nH]c(-c3ccc(N4CCC(C(N)=O)CC4)nc3F)cc2c1` [Compound 68], the values for the half-maximal inhibitory concentration (IC50) in data set [1] (setting [5]) and in data set [2] were 7 nM and 72 nM, respectively. In addition, the “Selectivity for tau relative to Aβ” value in data set [1] is reported as 10.
On the same counts, the results for `Oc1ccc2[nH]c(-c3cnc(N4CCC(CF)CC4)nc3)cc2c1` [Compound 69, 2-{2-[4-(Fluoromethyl)piperidin-1-yl]pyrimidin-5-yl}-1H-indol-5-ol] are 10 nM, 169 nM and 17.
`COc1ccc2[nH]c(-c3ccc(N4CCC(C(N)=O)CC4)nc3)cc2c1` [Compound 71, 1-[5-(5-Methoxy-1H-indol-2-yl)pyridin-2-yl]piperidine-4-carboxamide]: the half-maximal inhibitory concentration (IC50) in data set [1] (setting [5]) turned out to be 16 nM; in data set [2], 114 nM. For the same compound, in data set [1], the “Selectivity for tau relative to Aβ” value is 7.1.
Taken in the same sequence, the figures for `OCC1CCN(c2ncc(-c3cc4cc(OCCF)ccc4[nH]3)cn2)CC1` [Compound 72, (1-{5-[5-(2-Fluoroethoxy)-1H-indol-2-yl]pyrimidin-2-yl}piperidin-4-yl)methanol] were 7 nM, 42 nM and 6.
Taken in the same sequence, the figures for `COc1ncc2cc(-c3ccc(N4CCC(CO)CC4)nc3F)[nH]c2n1` [Compound 76, [1-(6-Fluoro-5-{2-methoxy-7H-pyrrolo[2,3-d]pyrimidin-6-yl}pyridin-2-yl)piperidin-4-yl]methanol] were 9 nM, 322 nM and 36.
Regarding `COc1ccc2[nH]c(-c3ccc(N4CCC(CO)CC4)nc3F)cc2c1` [Example Compound 47, {1-[6-Fluoro-5-(5-methoxy-1H-indol-2-yl)pyridin-2-yl]piperidin-4-yl}methanol], in data set [3] (2 min and 30 min), the “clearance from normal rat brain tissue” value is given as “rapidly cleared”. Also, the half-life in data set [3] (male, Sprague Dawley, rat, brain, samples at 2 min and 30 min, read-out: calculated half-life (t1/2) in rat brain tissue) is 15.8 min.
`COc1ccc2[nH]c(-c3ccc(N4CCC(C(N)=O)CC4)nc3F)cc2c1` [Example Compound 68, 1-[6-Fluoro-5-(5-methoxy-1H-indol-2-yl)pyridin-2-yl]piperidine-4-carboxamide]: in data set [4], the “tau binding site shared (competition with [^3H]-Example Compound 68)” value (shortened to “tau binding site shared”) is “share the same binding site”.
On to `Nc1c(F)ccc2cnc(-n3ccc4ccncc43)cc12` [MK-6240, reference compound], for which, in data set [1] (setting [5]), the concentration for half-maximal inhibition (IC50) is > 1000 nM and the “Tau IC50” value is “inactive”. The “tau binding site shared” value in data set [4] is “does not share the same binding site”.
For the compound `CNc1ccc(/C=C/C=C/c2nc3ccc(O)cc3s2)cn1` [PBB3, reference compound], the “Selectivity for tau relative to Aβ” value in data set [1] is given as 4. Moreover, in data set [4], the “tau binding site shared” value is listed as “share the same binding site”.
